Assay results: US10517965B2, “Bioorthogonal turn-on probes” (The General Hospital Corporation, priority 2013, dated 2019)

Legend:
[1] = Quantum yield determination, quinine sulfate reference; type: physicochemical; conditions: dihydropyridazine product after complete reaction with TCOc in PBS pH 7.4; quinine sulfate standard (Φ = 0.546)
Text: Quantum yield determinations: quinine sulfate dihydrate (Fluorescence Reference Standard grade, AnaSpec, Inc) in 0.5 M H2SO4 was used as a reference, with an excitation wavelength of 370 nm; a value of 0.546 was used for the reference quantum yield (Eaton, D. F., Pure and Applied Chemistry, 1988 60(7), 1107-1114). Calculations were made according to the methods described by Crosby and Demas (Chemical Reviews, 1971, 75(8), 991-1024).

[2] = Peak excitation/emission wavelengths and extinction coefficient in PBS; type: physicochemical; conditions: for ε: at peak excitation wavelength in PBS, pH 7.4, in M-1cm-1 (unit assumed); for Peak Em Wavelength: emission; for Peak Ex Wavelength: excitation
Experimental: (§1) Stock solutions of the freshly-purified tetrazine dyes were prepared in MeCN and stored in the dark at 4° C. during experiments. For fluorescence measurements, the probes diluted into 2 mL or 3 mL of phosphate buffered saline (PBS), pH 7.4 (Corning, cellgro) in a standard 10 mm quartz cuvette. Working at peak excitation and emission wavelengths for each probe, data were collected as a continuous time series to enable accurate measurement of the baseline intensity values and optimize signal to noise. Fluorescence experiments were conducted at a range of dye concentrations spanning 100 nM-750 nM, with 500 nM being a typical working concentration. The time to peak turn on ratio (but not the final magnitude) is a function of the added TCOc (see Example 25) concentration; for the time courses presented herein, 10 μM TCOc was used. Measurements of solvent and pre-activation emission intensity for baseline values were collected serially over at least 30 seconds, prior to addition of TCOc to initiate the fluorogenic reaction. After addition of TCOc (typically a 20-fold excess, as above), the fluorescence emission intensity was monitored until a plateau was reached. Activation ratios were calculated from the peak emission intensity of the dihydropyridazine product and the corresponding baseline intensity over background. Data were normalized to set the initial background fluorescence of the HELIOS probe to one unit over background, as plotted in FIG. 9 in the main text.
(§2) Microscope: Multichannel images were collected on an Olympus Fluoview FV1000 confocal laser microscope. Coumarin probes were excited with a 405 nm laser, with alternate excitation sources used as relevant for reference channels, paired with appropriate emission filter sets. Cell culture: A-431 cells (ATCC CRL-1555) and COS-1 cells (ATCC CRL-1650) were cultivated in Dulbecco's Modified Eagle's Medium (DMEM), supplemented with 10% fetal bovine serum and grown in standard culture conditions in 10 cm dishes. OVCA-429 cells were cultivated in RPMI-1640 supplemented with 10% fetal bovine serum under standard culture conditions. For imaging experiments cells were plated on Millicell EZ slides (EMD Millipore, Inc, Billerica, Mass.). Antibody reagents: Monoclonal antibody-TCO conjugates were prepared by incubation of commercially available monoclonal antibodies TCO-PEG4-NHS (Click Chemistry Tools, Scottsdale, Ariz.). Anti EGFR (Cetuximab, Imclone). Anti cytochrome c oxidase (COXIV, Cell signaling Technology, #4844, Danvers, Mass.). An aliquot of antibody in the manufacturer-supplied storage solution was buffer exchanged into PBS with 10 mM sodium bicarbonate, pH 8.0, on a 40K ZebaSpin desalting column (0.5 mL, Thermo Fisher Scientific, Rockford, Ill.). To this solution was added 20 equivalents of TCO-PEG4-NHS; the mixture was allowed to react at 25° C. for 30 minutes, with continuous shaking. The reaction mix was loaded onto a 40K ZebaSpin column to remove organic solvent and small molecule fractions; this eluate was loaded onto a second 40K ZebaSpin column to ensure comprehensive removal of any excess TCO. EGFR Imaging: Fixed A431 cells were prepared by treatment with 4% paraformaldehyde solution (10 min, room temperature), followed by 3 washes with PBS. Fixed cells were stored at 4° C. until the time of imaging, when they were incubated for 20 minutes with 20 μg/mL cetuximab-TCO, then rinsed three times with PBS. For optimal image quality, HELIOS 370H probe must be purified on the day of imaging by reversed phase HPLC-MS. The concentration of stock solutions in PBS were calculated by absorbance spectrometry, based on the measured extinction coefficient of 19000 M^−1 cm^−1. Prior to imaging, the purified stock solutions were subjected to turn-on testing, verifying a fluorogenic turn-on ratio of >1000-fold for HELIOS 370H. For imaging experiments, the acetonitrile stocks were diluted into PBS to yield a 100 nM solution. […]

[3] = Fluorogenic characterization of HELIOS probes on reaction with TCOc; type: physicochemical; conditions: for peak turn-on ratio upon reaction with TCOc: PBS; for Fluorescence Enhancement: fluorogenic turn-on ratio of the Me-tetrazines upon reaction with TCOc
Experimental: As described above, the fluorescence purity of all HELIOS compounds was verified by LCMS prior to quantitative activation experiments, for which a fresh aliquot of the fluorophore collected from the analytical HPLC elution was used. Exceptionally pure material is required to obtain the peak measured turn-on ratios, as the presence of trace bright contaminants limits the maximum observable ratio.
as §1

[4] = system: epidermal growth factor receptor (EGFR) on A431 cells; test: No-wash fluorogenic imaging of EGFR on A431 cells after cetuximab-TCO; type: cell-based, human
Text: as §2, with “For optimal image quality, HELIOS 370H probe must be purified on the day of imaging by reversed phase HPLC-MS.” left out, “cm^−1.” for “cm^−1. Prior to imaging, the purified stock solutions were subjected to turn-on testing, verifying a fluorogenic turn-on ratio of >1000-fold for HELIOS 370H. For imaging experiments, the acetonitrile stocks were diluted into PBS to yield a 100 nM solution.”

[5] = system: mitochondria of OVCA-429 cells; test: Mitochondria imaging of OVCA-429 cells after anti-COX IV-TCO; type: cell-based
Text: as §2, with “For optimal image quality, HELIOS 370H probe must be purified on the day of imaging by reversed phase HPLC-MS.” left out, “cm^−1.” for “cm^−1. Prior to imaging, the purified stock solutions were subjected to turn-on testing, verifying a fluorogenic turn-on ratio of >1000-fold for HELIOS 370H. For imaging experiments, the acetonitrile stocks were diluted into PBS to yield a 100 nM solution.”

[6] = Solvent polarity effects on fluorescence emission of the native probe; type: physicochemical; conditions: PBS pH 7.4, acetonitrile, toluene
Experimental: FIG. 5 provides the absorption and fluorescence emission spectra of 4b in toluene (dielectric constant 2.4) and acetonitrile (dielectric constant 37.5). Samples were prepared by matched dilutions from a concentrated stock solution of 4b. For the fluorescence spectra, the excitation wavelength was offset from peak absorbance in that solvent by 10 nm; in toluene, the excitation wavelength was 496 nm; in acetonitrile,
Fluorescence emission spectra of HELIOS 400Me in PBS (pH 7.4), acetonitrile (dielectric constant 37.5), and toluene (dielectric constant 2.4) was measured (see FIG. 10). Emission spectra are the mean of 2 or 3 scans and the dashed lines represent +/−SEM. Instrument settings were adjusted to optimize sensitivity given the minimal fluorescence of the native HELIOS probe, and samples were prepared by matched dilution of a concentrated stock solution of HELIOS 400Me into the respective solvents. […] J. Meskers, E. H. A. Beckers, S. Chopin, R. A. J. Janssen, J. Phys. Chem. A 2006, 110, 12363].

[7] = Solubility in aqueous media; type: physicochemical; conditions: PBS, micromolar concentrations

SMILES	Φ w/TCOc [1]	ε [2]	Peak Em Wavelength [2] [nm]	Peak Ex Wavelength [2] [nm]	peak turn-on ratio upon reaction with TCOc [3]	Fluorescence Enhancement [3]	also measured
Cc1nnc(-c2cccc(-c3c(C)c4ccc(N)cc4oc3=O)c2)nn1 [HELIOS 347Me]	0.29	18,500	455	347	2,500 fold	2,500-fold	–
Cc1c(-c2cccc(-c3nncnn3)c2)c(=O)oc2c(F)c(O)c(F)cc12 [HELIOS 370H]	–	–	–	–	–	–	staining pattern ([4]; 100 nM in PBS, no wash): bright, membrane specific staining; time until specific staining evident ([4]; 100 nM probe in PBS, fixed A431 cells, cetuximab-TCO): ≤ 10 s; nonspecific binding ([4]; after extended incubation): no nonspecific binding; measured extinction coefficient ([2]; stock solutions in PBS): 19000 M⁻¹ cm⁻¹; fluorogenic turn-on ratio of purified stock prior to imaging ([3]; turn-on testing of freshly purified stock solutions): > 1000 fold
Cc1nnc(-c2cccc(-c3c(C)c4cc(F)c(O)c(F)c4oc3=O)c2)nn1 [HELIOS 370Me]	0.49	19,000	463	370	2,900 fold	2,900-fold	–
Cc1c(-c2cccc(-c3nncnn3)c2)c(=O)oc2cc3c(cc12)CCCN3 [HELIOS 388H]	–	–	–	–	–	–	time until mitochondrial labeling evident ([5]; 100 nM, fixed and permeabilized OVCA-429 cells): ≤ 2 min; colocalization with mitochondria-specific RFP ([5]; OVCA-429 cells expressing RFP): good colocalization; target to background ratio over time ([5]; serial images up to an hour from dye addition): stable target to background ratios
Cc1nnc(-c2cccc(-c3c(C)c4cc5c(cc4oc3=O)NCCC5)c2)nn1 [HELIOS 388Me]	0.38	20,000	482	388	11,000 fold	11,000-fold	–
Cc1nnc(-c2cccc(-c3c(C)c4cc5c6c(c4oc3=O)CCCN6CCC5)c2)nn1 [HELIOS 400Me]	–	–	–	–	4,000 fold	–	dependence of fluorescence emission intensity on solvent polarity [6]: largely independent of solvent polarity; Solubility in phosphate buffered saline [7]: soluble
Cc1nnc(-c2ccc(-c3c(C)c4cc5c6c(c4oc3=O)CCCN6CCC5)cc2)nn1 [HELIOS 400pMe]	–	–	–	–	1,000 fold	–	Solubility in phosphate buffered saline [7]: soluble
Cc1c(CC(=O)NCc2ccc(-c3nncnn3)cc2)c(=O)oc2c(F)c(O)c(F)cc12 [Marina Blue-Tz, reference compound]	–	–	459	362	60 fold	60-fold	–
